Results on 1 molecule are retold here after US20240342184A1, “USE OF ENHANCER 3C1 IN PREPARATION OF ENHANCER FOR INTERACTION BETWEEN FXR AND CASPASE 8” (CHINA PHARMACEUTICAL UNIVERSITY, priority 2021, published 2024).

For one data set, the system named is C57BL/6 mice. Kind of data set: CCl4-induced liver injury of mice. Particulars: CCl4-injected C57BL/6 mice, 3C1 at 5 or 10 mg/kg/day i.p. Format: in vivo, mouse. On the procedure:
Before the experiment, C57BL/6 mice were acclimated for one week under the conditions of, room temperature at 22-26° C. and relative humidity of 40-60%, with light alternated with darkness for 12 h. Each mouse was housed in a separate cage with free access to water and food, and their body weights were maintained at 20-22 g. Experimental groups included a blank control group, a model group, a low-dose 3C1 administration group (5 mg/kg), and a high-dose 3C1 administration group (10 mg/kg).
The C57BL/6 mice in the low-dose 3C1 administration group and the high-dose 3C1 administration group were pre-administered with intraperitoneal injections of 3C1 at a dose of 5 mg/kg/day or 10 mg/kg/day, and the mice in other groups were subject to vehicle control. 3 days later, liver injury was induced by intraperitoneal injections of CCl4, and the control group was administered with mineral oil. The mice were euthanized 48 h later. Blood and livers of the mice were collected.
After standing at room temperature for 0.5 h, whole blood was centrifuged at 8000 rpm for 10 min, and a supernatant was transferred to a new electropolished (EP) tube to obtain serum. Alanine transaminase (ALT) and aspartate transaminase (AST) were detected according to instructions of ALT and AST assay kits.
1) 20 mg of a liver tissue sample from each mouse was weighed, 1.0 ml of RNAiso Plus was added, the samples were homogenized, and a homogenate was transferred to a centrifuge tubes, kept standing at room temperature for 5 min, and centrifuged at 4° C. and 12000 g for 5 min.
2) 800 μl of a supernatant was transferred, 160 μl of chloroform was added, and a mixture obtained was vigorously shaken for 15 sec, and then centrifuged at 12000 g for 15 min after standing at room temperature for 5 min. A sample included three layers: a bottom layer as a yellow organic phase, an upper layer as a colorless aqueous phase, and an intermediate layer.
3) 300 μl of the upper aqueous phase was carefully transferred to a new tube, 300 μl of isopropanol was added, after inverting and mixing, a mixture obtained stood at room temperature for 10 min, and after centrifugation at 12000 g for 10 min, the supernatant was discarded.
An RNA precipitate was washed with 1.0 ml of pre-chilled 75% ethanol and then centrifuged at 12000 g for 5 min, and a supernatant was discarded to obtain total RNA, which was reconstituted with 20 μl of DEPC water and diluted to […] after quantification.
According to a system ratio indicated in the specification, the RNA solution and kit components were prepared into a system with a total volume of 20 μl, and a programmed temperature was set for reverse transcription. Specific ratio requirements were as follows:
The PCR system is as follows:
Wuhan Servicebio Co., Ltd. was entrusted to complete H&E staining and Sirius Red staining.

Data set [1] concerns the target T1, interaction between FXR protein and Caspase 8 protein (Homo sapiens, UniProt Q14790+Q96RI1).
T1 construct: endogenous in cells; host or cells: L02 human hepatocyte cell line
Put plainly: Co-IP/Western blot of the FXR-Caspase 8 interaction in apoptotic L02 hepatocytes. Format: cell-based. To be noted: L02 cells, ActD/TNFα-induced apoptosis, 3C1 at 1, 10, 100 μM for 2 h, FIG. 3. The protocol: A human hepatocyte cell line L02 was cultured in a complete DMEM containing 10% FBS, and placed in a culture incubator containing 5% CO2 for culturing at 37° C., and cells in a logarithmic growth phase were inoculated in a 12-well plate at a density of 2×10^5 cells/well. After 24 h, an apoptosis model was constructed by means of human tumor necrosis factor-related apoptosis-inducing ligand (TRAIL), Actinomycin D (ActD)/tumor necrosis factor alpha (TNFα), and cycloheximide (CHX)/Fas ligand (FasL) methods respectively. Cells were treated with TRAIL at 50 ng/ml for 0, 2, 4, 8, 12, and 24 h, respectively. […] Cells were incubated with ActD/TNFα for 0, 1, 2, 4, 8, and 12 h, respectively. […] Cells were incubated with […] for 0, 2, 4, and 8 h, respectively.
1) Cells were washed twice with pre-chilled phosphate-buffered saline (PBS), an appropriate amount of pre-chilled PBS was added for the last time, a pre-chilled cell scraper was used to scrape the cells from a culture dish or a culture flask, and a suspension was transferred to a 1.5 ml electropolished (EP) tube. […] A protein concentration was determined through a bicinchoninic acid (BCA) assay. […]
Background: In western blotting, separated proteins are transferred to a membrane and probed.

Data set [2] has as its system human hepatocyte cell line L02. Kind of data set: MTT cell viability assay in induced hepatocyte apoptosis models. To be noted: 3C1 at 1, 10, 100 μM, L02 cells. Format: cell-based. On the procedure:
A human hepatocyte cell line L02 was cultured in complete medium DMEM containing 10% fetal bovine serum (FBS), and placed in a culture incubator containing 5% CO2 at 37° C., and cells in a logarithmic growth phase were inoculated in a 96-well plate at a density of 5×10^3 cells/well. The cells were transfected at 50 nM after 24 h. Hepatocyte apoptosis was induced 48 h later after the transfection. […]
In addition to an apoptosis reagent, the compound 3C1 of different concentrations (1 μM, 10 μM, and 100 μM) was administered.
After the time of administration, 20 μl of MTT (5 mg/ml) was added to each well, the cells were further incubated at 37° C. for 4 h, a culture medium was aspirated and discarded, 150 μl of dimethyl sulfoxide (DMSO) was added to each well, incubation was performed at 37° C. for 10 min, and the absorbance was measured at 490 nm.
A general note: Tetrazolium dyes change colour on reduction, which living cells bring about.

The target in data set [3] is T1, interaction between FXR protein and Caspase 8 protein. Put plainly: Co-IP/Western blot of the FXR-Caspase 8 interaction in healthy L02 hepatocytes. Format: cell-based. To be noted: 3C1 at 1, 10, 100 μM for 2 h, FIG. 2. The protocol: 1) Cells were washed twice with pre-chilled phosphate-buffered saline (PBS), an appropriate amount of pre-chilled PBS was added for the last time, a pre-chilled cell scraper was used to scrape the cells from a culture dish or a culture flask, and a suspension was transferred to a 1.5 ml electropolished (EP) tube. After centrifugation at 4° C. and 4000 rpm for 5 min, a supernatant was discarded, an appropriate amount of an NP40 lysis buffer was added, a mixture obtained was shaken evenly, and the cells were ultrasonicated for a total of 3 times (5 s per time) until the cells were completely lysed. After centrifugation at 4° C. and 14000 g for 10 min, a supernatant was transferred to a new EP tube, to obtain a protein lysis buffer. A protein concentration was determined through a bicinchoninic acid (BCA) assay.
2) 25 μl of Protein A Beads was taken and blocked with 5% bovine serum albumin (BSA) for 1 h at room temperature, and then washed with the PBS for 3 times, and a supernatant was discarded after centrifugation at 14000 g for 1 min each time. The protein lysis buffer with a uniform concentration was added to the Beads, rocking-turn was performed at 4° C. for 1 h, and a sample was pre-cleared. After centrifugation at 14000 g for 1 min, a supernatant was transferred to a new EP tube. […]

T1 sequence (Q96RI1 whole entry): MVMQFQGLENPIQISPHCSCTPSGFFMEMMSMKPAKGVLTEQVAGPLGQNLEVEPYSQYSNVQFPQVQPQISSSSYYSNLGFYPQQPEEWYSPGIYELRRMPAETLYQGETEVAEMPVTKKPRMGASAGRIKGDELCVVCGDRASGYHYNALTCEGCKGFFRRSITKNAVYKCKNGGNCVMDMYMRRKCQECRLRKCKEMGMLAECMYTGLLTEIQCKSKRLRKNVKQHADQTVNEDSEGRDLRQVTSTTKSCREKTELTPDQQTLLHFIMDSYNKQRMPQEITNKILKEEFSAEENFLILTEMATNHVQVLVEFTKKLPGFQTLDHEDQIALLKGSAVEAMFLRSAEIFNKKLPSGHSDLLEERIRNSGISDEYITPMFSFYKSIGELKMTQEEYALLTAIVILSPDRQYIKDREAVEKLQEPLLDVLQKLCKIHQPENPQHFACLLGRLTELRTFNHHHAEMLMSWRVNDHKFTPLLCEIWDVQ
T1 sequence (Q14790 217-479): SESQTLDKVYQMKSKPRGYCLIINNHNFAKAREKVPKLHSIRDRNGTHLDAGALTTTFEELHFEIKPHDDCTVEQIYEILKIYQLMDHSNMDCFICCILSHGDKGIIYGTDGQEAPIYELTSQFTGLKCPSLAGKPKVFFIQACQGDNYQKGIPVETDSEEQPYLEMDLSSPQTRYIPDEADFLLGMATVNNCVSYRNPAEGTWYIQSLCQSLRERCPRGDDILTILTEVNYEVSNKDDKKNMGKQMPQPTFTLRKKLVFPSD

Turning to `Cc1n[nH]c(=S)nc1Nc1ccc(F)c(Cl)c1` [Compound 3C1], the “serum ALT level” value with C57BL/6 mice (FIG. 5A) was “significantly reduced the elevated levels”. The “serum AST level” value with C57BL/6 mice (FIG. 5B) is on record as “significantly reduced the elevated levels”. The “liver pathology, H&E staining” value with C57BL/6 mice (FIG. 5C) is “significant remission in the disorders of liver lobule structures, decreased infiltration of inflammatory cell, and less collagen fibers in the portal area”. The “liver pathology, Sirius Red staining (red collagen fibers)” value with C57BL/6 mice (FIG. 5D) is recorded as “hyperplasia of red collagen fibers in the livers was significantly alleviated”. Moreover, the “liver Timp1 mRNA level” value in the data set with C57BL/6 mice (RT-PCR, P<0.001, FIG. 5E) is reported as “significantly reduced their mRNA levels (P<0.001) in a dose-dependent manner”. Besides, in the data set on C57BL/6 mice (RT-PCR, P<0.001, FIG. 5F), the “liver Timp2 mRNA level” value is listed as “significantly reduced their mRNA levels (P<0.001) in a dose-dependent manner”. In data set [1], the “interaction between FXR protein and Caspase 8 protein in apoptotic hepatocytes” value was “could reverse this reduction”. In addition, the “anti-apoptotic effect (cell viability, MTT)” value in data set [2] (ActD 30 min then TNFα 20 ng/ml for 8 h), in data set [2] (CHX 50 μM 30 min then FasL 50 ng/ml for 8 h) and in data set [2] (TRAIL 50 ng/ml for 24 h) was “significant anti-apoptotic effects” throughout. The “interaction between FXR protein and Caspase 8 protein in healthy cells” value in data set [3] is “obviously enhanced the interaction between FXR protein and Caspase 8 protein in healthy cells in a dose-dependent manner”.
